Measurements taken from ChEMBL document CHEMBL1250493, “Interaction of daunomycin with acetylated chromatin” (J Med Chem, 2010).

Columns and labels:
[1] = organism: Gallus gallus; test: Binding affinity to histone H1 containing chromatin in chicken erythroleukemic cells mononucleosomes transformed with Marek's virus by Scatchard plot analysis
[2] = organism: Gallus gallus; test: Binding affinity to histone H1 depleted chromatin in chicken erythroleukemic cells mononucleosomes transformed with Marek's virus by Scatchard plot analysis

Structure (SMILES): COc1cccc2c1C(=O)c1c(O)c3c(c(O)c1C2=O)C[C@@](O)(C(C)=O)C[C@@H]3O[C@H]1C[C@H](N)[C@H](O)[C@H](C)O1
- K [1]: 4.6 ×10⁴ /M
- K [2]: 6.4 ×10⁴ /M
